Reference: patent US12410457B2, “Use of rosmarinic acid in cell bioproduction” (BRISTOL-MYERS SQUIBB COMPANY, priority 2015, dated 2025)

How the values were obtained:
Assay type in all cases: cell-based, Chinese Hamster
aCD137 cells [1] = assay: aCD137 fed-batch culture with antioxidant in basal and/or feed media (shaker flask, 7-liter, 500-liter)
Method: In another embodiment, the dhfr-negative Chinese Hamster Ovary (CHO) cell line DG44 (Invitrogen Corp. Carlsbad, CA) were transfected in order to establish a stable cell line expressing a human IgG4 antibody.
The transfected CHO DG44 cells expressing the antibody was grown in the presence of antioxidants according to the methods of the invention.
(§1) Cells were cultured either in 50 ml spin tubes with an initial volume of 25 ml and a shaking speed of 300 rpm; or 250 ml shake flasks with an initial volume of 80˜100 ml and a shaking speed of 150 rpm on an orbital shaker with 25 mm throw distance. Temperature for the culture was controlled at constant 37° C. from the beginning of the culture and was shifted to 34° C. when viable cell density reached 10^6 cells/ml (usually on day 6) and CO2 was controlled at 6%.
(§2) A standard fed-batch culture process involved culturing the cells for 14 days with feeding beginning on day 3 at a feeding volume of 3.64% of initial culture volume. All the media used for cultures were chemically defined. Chemically defined feed media M154A1B is an enriched version of feed media F3.2. While the ingredient lists are the same between the two feed media, the concentration of a few of the ingredients is increased. Likewise, chemically defined basal media M17IB is an enriched version of basal media B1. For cultures in 7-liter or 500-liter reactors, dissolved oxygen (DO) was maintained at 50% and pH was controlled between 6.8 and 7.4.
(§3) Viable cell density (VCD) and cell viability were measured off-line using a CEDEX® automated cell counter (Innovatis AG). Culture samples were also analyzed off-line using a BIOPROFILE® 400 Analyzer to monitor pH, pCO2, pO2, glucose, glutamine, glutamate, lactate, and ammonium (Nova Biomedical Corporation). A Protein A HPLC method was used to measure protein titer, which were reported as normalized values.

aCD137 cells [2] = assay: Screen of antioxidants added to feed media in aCD137 fed-batch cell culture; conditions: for VCD %: day 8 (peak VCD), basal media not supplemented; for VCD % / Titer %: normalized to control without antioxidant; for Titer %: final titer harvested day 14
Method: Following the cell culture process described in Example 1, thirteen novel antioxidants (Table 1) were added to the feed media utilized in aCD137 cell culture. Three antioxidant concentrations were evaluated: 1 mM (Run #1-13), 0.25 mM (Run #17-29), and 0.0625 mM (Run #33-45). The antioxidants were dissolved in either pure ethanol or dimethyl sulfoxide (DMSO) at 50 mM stock concentration and added to feed media M154A1B at the designed final concentrations. The corresponding solvent negative controls were run number 16, 32, and 48. Two traditional antioxidants, ascorbic acid (Run #14, 30, and 46) and reduced glutathione (Run #15, 31, and 47), served as positive controls. The basal media M171IB was not supplemented with antioxidant.
as §1, §2, §3

myostatin cells = assay: Myostatin cell culture with antioxidant in basal and/or feed media (shake flask, 20-liter reactor)
Method: (§4) In another embodiment, the dhfr-negative Chinese Hamster Ovary (CHO) cell line DG44 (Invitrogen Corp. Carlsbad, CA) was transfected in order to establish a stable cell line expressing a recombinant human fusion protein.
(§5) The transfected CHO DG44 cells expressing the fusion protein was grown in the presence of antioxidants according to the methods of the invention.
as §1, §2, §3

aCD40L cells = assay: aCD40L cell shake flask culture with catechin in feed media; conditions: feed media 154A1 at 0.34 μM, 3.45 μM, 34.45 μM, 344.52 μM; basal media M17IB without catechin; shake flasks
Method: as §4, §5, §1
A standard fed-batch culture process involved culturing the cells for 14 days with feeding beginning on day 3 at a feeding volume of 3.64% of initial culture volume. All the media used for cultures were chemically defined. […]
as §3, with “A Protein A HPLC method was used to measure protein titer, which were reported as normalized values.” left out

[3] = basal media M17IB 0.07 mM and feed media M154A1B 1 mM, shaker flask fed-batch
[4] = 0.0625 mM in feed media M154A1B
[5] = feed at all three concentrations (0.0625-1 mM)
[6] = basal media M17IB at 0.1 mM, feed media M154A1B, 7-liter fed-batch
[7] = basal media at 0.1 mM, 500-liter production run
[8] = basal media B1 at 0.1 mM or feed media F3.2 at 1 mM or both, shake flask
[9] = basal media B1 at 0.1 mM, feed media F3.2, 20-liter bioreactor
[10] = feed media F3.2 at 1 mM, basal media B1, shaker flask fed-batch

Molecule | protein titer (aCD137 cells [1]; [3]) | viable cell density (aCD137 cells [1]; [3]) | VCD % (aCD137 cells [2]; [4]) [%] | Titer % (aCD137 cells [2]; [4]) [%] | VCD % (aCD137 cells [2]; 0.25 mM in feed media M154A1B) [%] | Titer % (aCD137 cells [2]; 0.25 mM in feed media M154A1B) [%] | VCD % (aCD137 cells [2]; 1 mM in feed media M154A1B) [%] | Titer % (aCD137 cells [2]; 1 mM in feed media M154A1B) [%] | protein titer (aCD137 cells [2]; [5]) | other results
O=C(/C=C/c1ccc(O)c(O)c1)O[C@@H]1C[C@](O)(C(=O)O)C[C@@H](O)[C@H]1O [Chlorogenic acid, chlorogenic acid] | increased | increased | 115.85 | 110.71 | 109.35 | 109.92 | 129.57 | 151.59 | increased protein titer | 
Oc1ccc(-c2[o+]c3cc(O)cc(O)c3cc2O)cc1 [Pelargonidin, pelargonidin] |  |  |  |  |  |  | 104.47 | 118.25 |  | 
O=c1c(O)c(-c2ccc(O)c(O)c2)oc2cc(O)cc(O)c12 [Quercetin, quercetin] | increased | increased |  |  | 119.28 | 111.90 | 123.11 | 128.97 |  | protein titer (aCD137 cells [2]; feed at 0.25 mM and 1 mM): increased protein titer
Oc1ccc(C=Cc2cc(O)cc(O)c2)cc1 [Resveratrol, resveratrol] | increased | increased | 102.53 | 112.70 | 92.24 | 111.90 | 107.48 | 144.05 | increased protein titer | 
O=C(/C=C/c1ccc(O)c(O)c1)O[C@H](Cc1ccc(O)c(O)c1)C(=O)O [Rosmarinic acid, rosmarinic acid] | increased | increased | 129.25 | 132.14 | 125.43 | 146.83 | 124.08 | 180.16 | increased protein titer | ammonium formation (aCD137 cells [1]; [6]): reduced; lactate formation (aCD137 cells [1]; [6]): reduced; protein titer (aCD137 cells [1]; [6]): increased; viable cell density (aCD137 cells [1]; [6]): increased; lactate formation (aCD137 cells [1]; [7]): reduced; protein titer (aCD137 cells [1]; [7]): increased; viable cell density (aCD137 cells [1]; [7]): increased; ammonium formation (myostatin cells; [8]): reduced; protein titer (myostatin cells; [8]): increased; viable cell density (myostatin cells; [8]): increased; protein titer (myostatin cells; [9]): effect on protein titer was maintained; viable cell density (myostatin cells; [9]): not changed
COc1cc(C2Oc3cc([C@H]4Oc5cc(O)cc(O)c5C(=O)[C@@H]4O)ccc3OC2CO)ccc1O (stereo partly drawn) [Silibinin, silibinin] |  |  |  |  |  |  | 99.11 | 144.44 |  | 
catechin | increased | increased | 98.66 | 111.90 | 93.52 | 112.70 | 102.01 | 116.67 | increased protein titer | ammonium formation (aCD137 cells [1]; [6]): reduced; lactate formation (aCD137 cells [1]; [6]): reduced; protein titer (aCD137 cells [1]; [6]): increased; viable cell density (aCD137 cells [1]; [6]): increased; protein titer (aCD137 cells [1]; [10]): increased; viable cell density (aCD137 cells [1]; [10]): maintained; protein titer (aCD40L cells): corresponds to an increase in catechin concentration; viable cell density (aCD40L cells): corresponds to an increase in catechin concentration; protein titer (myostatin cells; [9]): effect on protein titer was maintained; viable cell density (myostatin cells; [9]): not changed
